Literature values, collected in patent US20200093783A1, “Preparation and Anti-HepG2 Application for Urushiol-Based pH Response Micelle Encapsulating Paclitaxel” (Nanjing Zhongsen Biological Technology Co., Ltd., priority 2019, published 2020).

Test system: most of tumor cells
Settings: background statement

## urushiol
  IC50 (50% inhibiting concentration): 4 µg/mL
